In US8124629B2, “Naphthylacetic acids” (Hoffmann-La Roche Inc., priority 2008, dated 2012):

These compounds were tested against T1, human CRTH2 (Homo sapiens, UniProt Q9Y5Y4) (assay: Human CRTH2 Receptor Binding Assay (whole cell, [3H]ramatroban)). Details: CHO-K1 cells expressing human CRTH2 and G-alpha16; 20 nM [3H]ramatroban; 1 hour, room temperature.
T1 sequence (Q9Y5Y4 1-395): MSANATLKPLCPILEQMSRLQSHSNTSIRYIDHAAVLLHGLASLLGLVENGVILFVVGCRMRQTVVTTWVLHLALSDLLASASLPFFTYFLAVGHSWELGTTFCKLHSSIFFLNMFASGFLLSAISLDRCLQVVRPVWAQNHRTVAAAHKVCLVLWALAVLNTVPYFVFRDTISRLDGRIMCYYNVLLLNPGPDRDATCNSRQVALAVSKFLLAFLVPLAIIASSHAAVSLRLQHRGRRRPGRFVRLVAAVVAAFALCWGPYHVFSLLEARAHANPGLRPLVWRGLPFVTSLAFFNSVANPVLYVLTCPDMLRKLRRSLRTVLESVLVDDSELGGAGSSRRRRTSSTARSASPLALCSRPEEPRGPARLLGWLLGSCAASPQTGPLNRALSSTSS
Set-up: expressed in transfected cells; host or cells: CHO-K1
Excerpt: A whole cell receptor binding assay using [^3H]ramatroban as the competing radioactive ligand was employed to evaluate the compound binding activity to human CRTH2. The radioactive ligand [^3H]ramatroban was synthesized according to Sugimoto et. al. (Eur. J. Pharmacol. 524, 30-37, 2005) to a specific activity of 42 Ci/mmol.
A cell line stably expressing human CRTH2 was established by transfecting CHO-K1 cells with two mammalian expression vectors that harbored human CRTH2 and G-alpha16 cDNAs, respectively, using FuGene® 6 transfection reagent (from Roche). Stable clones expressing CRTH2 were selected by staining each clone with BM16 (BD Pharmingen™ from BD Biosciences, a division of Becton, Dickinson and Company), which is a rat monoclonal antibody to human CRTH2. The cells were maintained as monolayer cultures in Ham's F-12 medium containing 10% fetal bovine serum, 100 units/mL penicillin, 100 μg/mL streptomycin, 2 mM glutamine, 0.5 mg/mL G418 (geneticin) for CRTH2, and 0.2 mg/mL hygromycin-B (for G-alpha 16). For whole cell receptor binding assay, the monolayer cells were rinsed once with PBS (phosphate buffered saline), dissociated using ethylenediaminetetraacetate (Versene™ EDTA from Lonza Inc.), and suspended in PBS containing 10 mM MgCl2 and 0.06% BSA (bovine serum albumin) at 1.5×10^6 cells/mL.
The binding reactions (0.2 mL) were performed in 96-well plates at room temperature in PBS containing 1.5×10^5 cells, 10 mM MgCl2, 0.06% BSA, 20 nM [^3H]ramatroban, and test compound at various concentrations. After 1 hour of binding reactions, the cells were harvested on GF™/B filter microplates (microtiter plates with embedded glass fiber from Perkin Elmer, Inc.) and washed 5 times with PBS using a Filtermate™ Harvester (a cell harvester that harvests and washes cells from microplates from PerkinElmer, Inc.). The radioactivities bound to the cells were determined using a microplate scintillation counter (TopCount® NXT, from PerkinElmer, Inc.) after adding 50 μL of Microscint™ 20 scintillation fluid (from PerkinElmer, Inc.) to each well of the filter plates. The radioactivity from non-specific binding was determined by replacing compound with 10 μM of 15(R)-15-methyl PGD2 (from Cayman Chemical Company) in the reaction mixtures. The radioactivity bound to the cells in the absence of compound (total binding) was determined by replacing compound with 0.25% of DMSO (dimethyl sulfoxide) in the reaction mixture. Specific binding data were obtained by subtracting the radioactivity of non-specific binding from each binding data.
The IC50 value is defined as the concentration of the tested compound that is required for 50% inhibition of total specific binding. In order to calculate the IC50 value, the percent inhibition data were determined for 7 concentrations for each compound. The percent inhibition for a compound at each concentration was calculated according to the following formula, [1-(specific binding in the presence of compound)/(total specific binding)]×100. The IC50 value was then obtained by fitting the percent inhibition data to a sigmoidal dose-response (4 parameter logistic) model in the XLfit® software Excel add-in program [from ID Business Solutions Ltd., model 205, where F(x)=(A+(B−A)/(1+((C/×)^D)))].

| SMILES | IC50 [nM] |
| --- | --- |
| Cc1c(CC(=O)O)cc2ccc(F)cc2c1Cc1ccc(-n2cccn2)cc1 [Example 10-6, [6-Fluoro-3-methyl-4-(4-pyrazol-1-yl-benzyl)-naphthalen-2-yl]-acetic acid] | 26.7 |
| Cc1c(CC(=O)O)cc2ccc(F)cc2c1Cc1cccc(-c2nnnn2C)c1 [Example 10-7, (6-Fluoro-3-methyl-4-[3-(1-methyl-1H-tetrazol-5-yl)-benzyl]-naphthalen-2-yl]-acetic acid] | 6.7 |
| Cc1c(CC(=O)O)cc2ccc(F)cc2c1Cc1ccc(OCc2ccccc2)cc1 [Example 10-8, [4-(4-Benzyloxy-benzyl)-6-fluoro-3-methyl-naphthalen-2-yl]-acetic acid] | 5 |
| Cc1c(CC(=O)O)cc2ccc(F)cc2c1Cc1cccc(C#N)c1 [Example 10-9, [4-(3-Cyano-benzyl)-6-fluoro-3-methyl-naphthalen-2-yl]-acetic acid] | 59.9 |
| Cc1c(CC(=O)O)cc2ccc(F)cc2c1Cc1ccc(-c2nnnn2C)cc1 [Example 10-10, {6-Fluoro-3-methyl-4-[4-(1-methyl-1H-tetrazol-5-yl)-benzyl]-naphthalen-2-yl}-acetic acid] | 32.5 |
| Cc1c(CC(=O)O)cc2ccc(F)cc2c1Cc1ccc(SCc2ccccc2)cc1 [Example 10-11, [4-(4-Benzylsulfanyl-benzyl)-6-fluoro-3-methyl-naphthalen-2-yl]-acetic acid] | 3.5 |
| Cc1c(CC(=O)O)cc2ccc(Cl)cc2c1Cc1ccc(S(C)(=O)=O)cc1 [Example 10-12, [6-Chloro-4-(4-methanesulfonyl-benzyl)-3-methyl-naphthalen-2-yl]-acetic acid] | 10 |
| Cc1c(CC(=O)O)cc2ccc(F)cc2c1Cc1cccc(S(=O)(=O)C(F)(F)F)c1 [Example 11-2, [6-Fluoro-3-methyl-4-(3-trifluoromethanesulfonyl-benzyl)-naphthalen-2-yl]-acetic acid] | 68 |
| Cc1c(CC(=O)O)cc2ccc(F)cc2c1Cc1ccc(S(=O)(=O)Cc2ccccc2)cc1 [Example 11-3, [6-Fluoro-3-methyl-4-(4-phenylmethanesulfonyl-benzyl)-naphthalen-2-yl]-acetic acid] | 2.7 |
| Cc1c(CC(=O)O)cc2ccc(F)cc2c1Cc1ccc(-c2ccc(S(C)(=O)=O)cc2)cc1 [Example 12-1, [6-Fluoro-4-(4′-methanesulfonyl-biphenyl-4-ylmethyl)-3-methyl-naphthalen-2-yl]-acetic acid] | 5.6 |
| Cc1c(CC(=O)O)cc2ccc(F)cc2c1Cc1ccc(-c2cncnc2)cc1 [Example 12-2, [6-Fluoro-3-methyl-4-(4-pyrimidin-5-yl-benzyl)-naphthalen-2-yl]-acetic acid] | 10.2 |
| CCS(=O)(=O)c1ccc(Cc2c(C)c(CC(=O)O)cc3ccc(F)cc23)cc1 [Example 13-1, [4-(4-Ethanesulfonyl-benzyl)-6-fluoro-3-methyl-naphthalen-2-yl]-acetic acid] | 3.1 |
| Cc1c(CC(=O)O)cc2ccc(F)cc2c1Cc1ccccc1S(=O)(=O)c1ccccc1 [Example 14-1] | 5.4 |
| Cc1ccc(Cc2c(C)c(CC(=O)O)cc3ccc(F)cc23)cc1 [Example 15-1, [6-Fluoro-3-methyl-4-(4-methyl-benzyl)-naphthalen-2-yl]-acetic acid] | 60.1 |
| Cc1c(CC(=O)O)cc2ccc(F)cc2c1Cc1cccc(Cl)c1 [Example 15-2, [4-(3-Chloro-benzyl)-6-fluoro-3-methyl-naphthalen-2-yl]-acetic acid] | 83.8 |
| Cc1c(CC(=O)O)cc2ccc(F)cc2c1Cc1ccc(F)cc1 [Example 15-3, [6-Fluoro-4-(4-fluoro-benzyl)-3-methyl-naphthalen-2-yl]-acetic acid] | 32.8 |
| Cc1c(CC(=O)O)cc2ccc(F)cc2c1Cc1ccc(OC(F)(F)F)cc1 [Example 15-4, [6-Fluoro-3-methyl-4-(4-trifluoromethoxy-benzyl)-naphthalen-2-yl]-acetic acid] | 79.3 |
| COC(=O)c1cccc(Cc2c(C)c(CC(=O)O)cc3ccc(F)cc23)c1 [Example 15-5, 3-(3-Carboxymethyl-7-fluoro-2-methyl-naphthalen-1-ylmethyl)-benzoic acid methyl ester] | 27.6 |
| CS(=O)(=O)c1ccc(C(O)c2cc(CC(=O)O)cc3ccc(F)cc23)c(Cl)c1 (stereo not drawn) [Example 16-1, {4-[(2-Chloro-4-methanesulfonyl-phenyl)-hydroxy-methyl]-6-fluoro-naphthalen-2-yl}-acetic acid] | 16.1 |
| CS(=O)(=O)c1ccc(C(O)c2cc(CC(=O)O)cc3ccc(Cl)cc23)cc1 (stereo not drawn) [Example 16-3, {6-Chloro-4-[hydroxy-(4-methanesulfonyl-phenyl)-methyl]-naphthalen-2-yl}-acetic acid] | 15.9 |
| Cc1cc(S(C)(=O)=O)ccc1C(O)c1cc(CC(=O)O)cc2ccc(F)cc12 (stereo not drawn) [Example 16-4, {6-Fluoro-4-[hydroxy-(4-methanesulfonyl-2-methyl-phenyl)-methyl]-naphthalen-2-yl}-acetic acid] | 31.9 |
| CS(=O)(=O)c1ccc(C(O)c2cc(CC(=O)O)cc3ccc(F)cc23)cc1 (stereo not drawn) [Example 16-5, {6-Fluoro-4-[hydroxy-(4-methanesulfonyl-phenyl)-methyl]-naphthalen-2-yl}-acetic acid] | 8 |
| CS(=O)(=O)c1ccc(C(O)c2cc(CC(=O)O)cc3ccccc23)cc1 (stereo not drawn) [Example 16-6, {4-[Hydroxy-(4-methanesulfonyl-phenyl)-methyl]-naphthalen-2-yl}-acetic acid] | 35.2 |
| CCS(=O)(=O)c1ccc(C(O)c2cc(CC(=O)O)cc3ccc(F)cc23)cc1 (stereo not drawn) [Example 16-7, {4-[(4-Ethanesulfonyl-phenyl)-hydroxy-methyl]-6-fluoro-naphthalen-2-yl}-acetic acid] | 17.4 |
| CCS(=O)(=O)c1ccc(C(O)c2cc(CC(=O)O)cc3ccc(F)cc23)c(C)c1 (stereo not drawn) [Example 16-8, {4-[(4-Ethanesulfonyl-2-methyl-phenyl)-hydroxy-methyl]-6-fluoro-naphthalen-2-yl}-acetic acid] | 18.9 |
| CS(=O)(=O)c1ccc(C(F)(F)c2cc(CC(=O)O)cc3ccc(F)cc23)c(Cl)c1 [Example 17-1, {4-[(2-Chloro-4-methanesulfonyl-phenyl)-difluoro-methyl]-6-fluoro-naphthalen-2-yl}-acetic acid] | 5.7 |
| CS(=O)(=O)c1ccc(C(F)(F)c2cc(CC(=O)O)cc3ccc(F)cc23)cc1 [Example 17-2, {4-[Difluoro-(4-methanesulfonyl-phenyl)-methyl]-6-fluoro-naphthalen-2-yl}-acetic acid] | 3.1 |
| CCS(=O)(=O)c1ccc(C(F)(F)c2cc(CC(=O)O)cc3ccc(F)cc23)cc1 [Example 17-3, {4-[(4-Ethanesulfonyl-phenyl)-difluoro-methyl]-6-fluoro-naphthalen-2-yl}-acetic acid] | 3.9 |
| COC(c1ccc(S(C)(=O)=O)cc1)c1cc(CC(=O)O)cc2ccc(F)cc12 (stereo not drawn) [Example 18-1, {6-Fluoro-4-[(4-methanesulfonyl-phenyl)-methoxy-methyl]-naphthalen-2-yl}-acetic acid] | 40.4 |
| Cc1c(CC(=O)O)cc2ccc(F)cc2c1C(O)c1ccc(S(C)(=O)=O)cc1 (stereo not drawn) [Example 19-1, {6-Fluoro-4-[hydroxy-(4-methanesulfonyl-phenyl)-methyl]-3-methyl-naphthalen-2-yl}-acetic acid] | 11.8 |
